Measured values: article PMC12693327, “SERAAK2 as a Serotonin Receptor Ligand: Structural and Pharmacological In Vitro and In Vivo Evaluation” (Molecules, 2025)

Legend:
mice [1] = tested on: mice; design: method as in PMID 40430337; conditions: 30 mg/kg; cited from earlier work
CYP3A4 = target: T1, CYP3A4 (Homo sapiens, UniProt P08684); design: method as in PMID 40430337; conditions: cited from earlier work
T1 construct: purchased Promega

[2] = design: method as in PMID 40430337; conditions: cited from earlier work
CYP2D6 = CYP2D6 (Homo sapiens, UniProt P10635); design: purchased Promega; method as in PMID 40430337; conditions: cited from earlier work
Sequence of CYP2D6 (P10635 whole entry): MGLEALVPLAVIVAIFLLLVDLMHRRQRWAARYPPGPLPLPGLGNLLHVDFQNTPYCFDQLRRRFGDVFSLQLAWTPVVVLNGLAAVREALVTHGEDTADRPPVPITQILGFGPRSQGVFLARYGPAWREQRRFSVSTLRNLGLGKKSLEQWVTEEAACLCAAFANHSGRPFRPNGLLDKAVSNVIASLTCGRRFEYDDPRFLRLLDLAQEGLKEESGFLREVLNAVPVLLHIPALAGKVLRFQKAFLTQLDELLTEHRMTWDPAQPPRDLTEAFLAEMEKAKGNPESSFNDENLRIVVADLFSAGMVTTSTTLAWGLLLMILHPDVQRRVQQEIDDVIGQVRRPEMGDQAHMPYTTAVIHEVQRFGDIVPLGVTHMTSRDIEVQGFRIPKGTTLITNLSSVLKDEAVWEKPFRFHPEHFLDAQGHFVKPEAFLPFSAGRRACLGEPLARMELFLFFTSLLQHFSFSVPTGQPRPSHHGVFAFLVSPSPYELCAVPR

mice [3] = tested on: mice; design: method as in PMID 40430337; conditions: 30 mg/kg; cited from earlier work; remark: listed apart in the source
mice [4] = tested on: mice; design: method as in PMID 40430337; conditions: 30–60 mg/kg; cited from earlier work
mice [5] = tested on: mice; design: method as in PMID 40430337; conditions: 30–60 mg/kg, rotarod and chimney; cited from earlier work
mice [6] = tested on: mice; design: method as in PMID 40430337; conditions: 30 mg/kg; cited from earlier work; remark: listed apart in the source
mice [7] = assay: Amphetamine-induced hyperactivity; format: in vivo; conditions: amphetamine 3 mg/kg, vs saline-treated group, p < 0.05
Experimental: The investigated compound (SER2AAK2) was bought from Enamine (purity over 95%) and in all tests was administered intraperitoneally (i.p.), spread in a drop of Tween 80, and diluted with an aqueous solution of 0.5% methylcellulose (tylose) and injected 60 min before the tests in a volume of 10 mL/kg. Control groups received tylose injections of the same volume and via the same route of administration.
Locomotor activity of the mice was assessed using the Opto-Varimex-4 Auto-Track system (Columbus Instruments, OH, USA). Each mouse was placed individually in a testing cage for 25 min—5 min for acclimatization, followed by 20 min of activity recording. (6a) The total distance traveled (in centimeters) was measured. Cages were cleaned with 10% ethanol between sessions.

SH-SY5Y cells = assay: MTS cytotoxicity assay in SH-SY5Y cells; format: cell-based, human; conditions: 30 µM, 72 h
Experimental: The cytotoxic potential of SERAAK2 was evaluated in two human-derived cell lines chosen for their physiological relevance: HepG2 (hepatocellular carcinoma) and SH-SY5Y (neuroblastoma). […] It is particularly noteworthy that the use of the SERAAK2 compound at a concentration of 30 µM reduces the number of viable cells below the level of the positive control (doxorubicin) at the same concentration (Table 3). […] Under the experimental conditions used, after 72 h of incubation, a fraction of doxorubicin-treated cells remains metabolically active and generates a low signal in the MTS assay. The enhanced signal reduction observed in the MTS assay for the tested compound, compared to doxorubicin, indicates strong cytotoxic activity leading to necrosis of the entire cell population.
An assessment of the cytotoxic potential of SERAAK2 was carried out utilizing the colorimetric MTS assay. This investigation was executed on both HepG2 and SH-SY5Y cell lines, adhering to an identical procedure. The cell lines, sourced from the American Type Culture Collection (Manassas, VA, USA), were cultured under standard conditions (5% CO2, 37 °C) in DMEM/F12 medium (#31330-038, ThermoFisher Scientific, Waltham, MA, USA). The medium was supplemented with 10% Fetal Bovine Serum (FBS, #A5256801, ThermoFisher Scientific) and a Penicillin–Streptomycin solution (#15140-122, ThermoFisher Scientific) until their use in the study. Cells within passage numbers 15 to 25 were plated in 96-well plates at a density of 5000 cells per well in 200 μL of medium and allowed to adhere during a 24 h incubation at 37 °C with 5% CO2. […] The plates were then subsequently returned to the 37 °C incubator, after which absorbance was recorded with a Spark microplate reader; this measurement occurred after 1 h for the HepG2 line and 3 h for the SH-SY5Y line. The ultimate cell viability percentage was determined by comparing results to the control wells, which represented 100% viability, and the wells treated with 10 μM doxorubicin, which were defined as 0% viability. […]

T1 sequence (P08684 whole entry): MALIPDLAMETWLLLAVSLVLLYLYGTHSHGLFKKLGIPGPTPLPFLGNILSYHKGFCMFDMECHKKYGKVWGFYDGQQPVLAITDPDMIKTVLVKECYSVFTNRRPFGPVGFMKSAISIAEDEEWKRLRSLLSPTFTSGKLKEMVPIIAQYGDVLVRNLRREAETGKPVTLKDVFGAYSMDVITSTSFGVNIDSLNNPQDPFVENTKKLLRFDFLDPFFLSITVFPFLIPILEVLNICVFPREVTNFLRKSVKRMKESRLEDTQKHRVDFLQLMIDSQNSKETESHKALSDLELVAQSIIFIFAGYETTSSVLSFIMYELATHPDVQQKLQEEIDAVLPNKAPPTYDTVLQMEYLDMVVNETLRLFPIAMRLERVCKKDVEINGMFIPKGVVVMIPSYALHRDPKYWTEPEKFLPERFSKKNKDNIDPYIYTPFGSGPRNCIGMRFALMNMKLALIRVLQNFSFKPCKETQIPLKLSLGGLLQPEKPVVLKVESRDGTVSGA

Structure (SMILES): OC(COC(c1ccccc1)c1ccccc1)CN1CCN(C(c2ccccc2)c2ccccc2)CC1 (stereo not shown) [SERAAK1]
- Forced swim test (FST), immobility (mice [1]): ↓ immobility (30 mg/kg)—antidepressant-like effect connected with serotonergic modulation
- CYP3A4 induction (increase of activity) (CYP3A4): 3.5 fold
- Pe (PAMPA) [2]: < 0.01 ×10⁻⁶ cm/s
- IC50 (CYP2D6): 720 nM
- Elevated plus maze (EPM), open arm time and entries (mice [3]): ↑ open arm time and entries (30 mg/kg)—anxiolytic effect
- Spontaneous locomotor activity (mice [4]): no change (30–60 mg/kg)
- Motor coordination (rotarod, chimney) (mice [5]): no impairment (30–60 mg/kg)—stable motor profile
- amphetamine-induced hyperactivity (mice [6]): ↓ hyperactivity (30 mg/kg)

Structure (SMILES): CC(N)Cc1ccccc1 (stereo not shown) [amphetamine, reference compound]
- locomotor activity after amphetamine alone (mice [7]): significantly increased the locomotor activity

Structure (SMILES): COc1cccc2c1C(=O)c1c(O)c3c(c(O)c1C2=O)C[C@@](O)(C(=O)CO)C[C@@H]3O[C@H]1C[C@H](N)[C@H](O)[C@H](C)O1 [DOX, Doxorubicin, reference compound]
- Percentage Reduction in the Number of Viable SH-SY5Y Cells [Mean ± SEM] (SH-SY5Y cells): 102 ± 1%
